Patent publication US20090176792A1, “SUBSTITUTED DIBENZHYDRYLPIPERAZINES” (AUSPEX PHARMACEUTICALS, INC., priority 2008, published 2009)

What was measured:
[1] = In vitro liver microsomal stability assay; conditions: human liver microsomes 1 mg per mL, 1 μM, 37° C., vs non-isotopically enriched drug
Procedure: Test compounds were prepared as solutions in 20% acetonitrile-water and added to the assay mixture (final assay concentration 1 μM) and incubated at 37° C. Final concentration of acetonitrile in the assay should be <1%. Aliquots (50 μL) were taken out at times 0, 15, 30, 45, and 60 min, and diluted with ice cold acetonitrile (200 μL) to stop the reactions. Samples were centrifuged at 12,000 RPM for 10 min to precipitate proteins. Supernatants were transferred to micro centrifuge tubes and stored for LC/MS/MS analysis of the degradation half-life of the test compounds.

cytochrome P450 CYP2D6 = cytochrome P450 CYP2D6 (Homo sapiens, UniProt P10635); conditions: cited from earlier work
Sequence of cytochrome P450 CYP2D6 (P10635 whole entry): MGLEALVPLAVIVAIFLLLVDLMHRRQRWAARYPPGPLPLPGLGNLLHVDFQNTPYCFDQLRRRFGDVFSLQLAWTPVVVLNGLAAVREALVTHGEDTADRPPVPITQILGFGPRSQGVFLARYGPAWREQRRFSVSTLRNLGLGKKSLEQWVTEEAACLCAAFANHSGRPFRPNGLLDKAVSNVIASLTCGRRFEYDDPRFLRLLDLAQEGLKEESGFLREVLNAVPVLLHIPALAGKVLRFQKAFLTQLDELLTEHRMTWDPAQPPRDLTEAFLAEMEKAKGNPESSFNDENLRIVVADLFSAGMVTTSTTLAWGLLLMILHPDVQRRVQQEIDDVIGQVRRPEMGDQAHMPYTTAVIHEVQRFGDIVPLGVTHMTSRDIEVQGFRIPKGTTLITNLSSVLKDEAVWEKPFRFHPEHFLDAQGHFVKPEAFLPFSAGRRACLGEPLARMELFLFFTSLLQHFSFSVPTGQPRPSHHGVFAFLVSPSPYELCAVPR

| Structure (SMILES) | % Increase of HLM degradation half-life ([1]; column 0%-5%) | inhibition of cytochrome P450 CYP2D6 (cytochrome P450 CYP2D6) | % Increase of HLM degradation half-life ([1]; column 5-15%) |
| --- | --- | --- | --- |
| CN1CCN(C(c2ccccc2)c2ccccc2)CC1 [Example 1, 1-benzhydryl-4-methylpiperazine] | + (0%-5%) | inhibit | – |
| [2H]C([2H])([2H])N1CCN(C(c2ccccc2)c2ccccc2)CC1 [Example 2, d3-1-Benzhydryl-4-methylpiperazine] | – | – | + (5-15%) |
